# Data reported in article PMC10981997, “PEDF peptide plus hyaluronic acid stimulates cartilage regeneration in osteoarthritis via STAT3-mediated chondrogenesis” (Bone & Joint Research, 2024).
# Columns and labels:
# BM-MSCs = assay: BrdU incorporation (proliferation) of BM-MSCs in expansion medium; type: cell-based, rat; conditions: pretreatment before 29-mer 10 μM, p < 0.001 vs 29-mer
# From the text: Sprague-Dawley rats were anaesthetized and their femora were aseptically harvested, washed in a mixture of PBS and 1% penicillin/streptomycin for five minutes, dissected of all soft-tissue, transected at their epiphysis, and their marrow cavity rinsed repeatedly with a mixture of heparin (AGGLUTEX INJ 5,000 U/ml; working conc. 100 U/ml) and Dulbecco’s Modified Eagle Medium (DMEM; Gibco, Thermo Fisher Scientific). The harvested cells were collected, dispersed by pipetting, and centrifuged at 1,000× g for five minutes at RT. Cell pellets were resuspended with DMEM and then the cell suspension was transferred to a 15 ml centrifuge tube containing 5 ml of Percoll (1.073 g/ml; MilliporeSigma). After centrifugation at 1,500× g for 30 minutes, the mononuclear cells in the middle layer were obtained, washed three times with PBS, and suspended in expansion medium (low-glucose DMEM with 10% heat-inactivated FBS, 1% penicillin/streptomycin). […] BrdU immunostaining of BM-MSCs was performed as in Ho et al’s[14] study.
# BM-MSCs were expanded for seven days in culture and then exposed to the 29-mer (10 μM) for 24 hours. Cell proliferation was detected by BrdU pulse-labelling for four hours and analyzed by BrdU immunostaining (red colour; Figure 1a).
# articular cartilage (AC) = assay: In vivo BrdU labelling and immunostaining of chondrogenic markers in damaged AC; design: species or system rat; conditions: inhibitor 1 mM in 25 µl 5% HA intra-articular 60 min before 29-mer/HA at days 8 and 12
# Method: Rats were anaesthetized by an intraperitoneal injection of xylazine (10 mg/kg) and then the right knees were injected with MIA (1 mg dissolved in 25 µl of sterile saline), using a 27-gauge needle through the patellar ligament of the knees.[18],[19] The left knee joints (control) were injected with saline. To prepare the 29-mer/HA, the 29-mer was dissolved in dimethylsulfoxide (DMSO) to make a 10 mM stock solution. Equal volumes of DMSO and 29-mer (0.5 µl) were dissolved in HA. At days 8 and 12 after MIA injection, the right knees (n = 6 per group) were randomly injected by: 1) 29-mer/25 µl of 5% HA (final concentration of 29-mer at 0.2 mM); 2) DMSO vehicle/5% HA; 3) control peptide/5% HA; 4) 5% HA alone; and 5) 29-mer/25 µl of phosphate-buffered saline (PBS; final concentration of 29-mer at 0.2 mM). […]
# BrdU was reconstituted in DMSO as stock (80 mM). […] Deparaffinized sections were treated with 1N HCl at RT for 1 h, and DNA synthesis was assessed by anti-BrdU antibody. […] Images were captured using a Zeiss epifluorescence microscope with a CCD camera (Zeiss, Germany), and blinded quantification was performed in triplicate by manually counting within each section. […]
SMILES,effect of inhibitor pretreatment on the 29-mer-induced BrdU+ levels (BM-MSCs),effect of inhibitor on 29-mer/HA-induced BrdU-labelled chondrocytes (articular cartilage (AC))
"C[C@H]1COC2=C1C(=O)C(=O)c1c2ccc2c1CCCC2(C)C [CPT, cryptotanshinone]",significantly suppressed,blocked
"CN(C)C(=O)Nc1cccc(-c2ccc(N(C)C)cc2)c1 [atglistatin, Atglistatin]",significantly suppressed,blocked
